Results as given in article PMC8164657, “Intraoperative visualization of nerves using a myelin protein-zero specific fluorescent tracer” (EJNMMI Research, 2021).
In brackets after ≈: the same amount, converted by molar mass. Several values for one entry are separate records, joined by “and”; a condition that tells them apart may be missing. Identical values can stand only once. Residues, ends and D or L forms follow the SMILES beside them. *: point of attachment. X1 = CC1(C)C(/C=C/C=C/C=C2/N(CCCCS(=O)(=O)O)c3ccc(S(=O)(=O)O)cc3C2(C)C)=[N+](CCCCCC(=O)NCCN2C(=O)CC(*)C2=O)c2ccc(S(=O)(=O)[O-])cc21; Cy5 = far-red cyanine dye Cy5 on Cys

Legend:
[1] = molecular target: T1, P0 (P0-expressing RT4 D6P2T cells) (Rattus norvegicus, UniProt P06907); assay: Flow cytometric saturation binding (KD); details: saturation binding 0–2000 nM, flow cytometry APC-A channel, triplicate, repeated at least three times
T1 construct: was performed using P0-expressing RT4 D6P2T cells; host or cells: RT4 D6P2T Schwannoma cells
T1 sequence (P06907 30-248): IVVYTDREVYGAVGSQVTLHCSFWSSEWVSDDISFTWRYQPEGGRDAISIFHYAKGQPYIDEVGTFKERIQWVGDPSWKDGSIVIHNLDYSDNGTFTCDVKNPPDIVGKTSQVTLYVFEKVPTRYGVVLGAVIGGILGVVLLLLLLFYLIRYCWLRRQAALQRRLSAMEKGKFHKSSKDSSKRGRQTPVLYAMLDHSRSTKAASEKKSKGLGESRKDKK
Method: Analysis of the binding affinity (KD) of Cy5-P0_1–25, Cy5-P0_41–65, Cy5-P0_61–85, Cy5-P0_81–105, Cy5-P0_95–120 and Cy5-P0_101–125 for P0 was performed using P0-expressing RT4 D6P2T cells and a previously described flow cytometric method. For saturation, binding experiments were performed for each of the fluorescent peptides in a concentration range of 0–2000 nM. All measurements were taken in triplicate, and experiments were repeated at least three times per tracer. Fluorescence was measured using a FACSCanto II flow cytometry device (BD Biosciences) in the APC-A channel. The normalized geometric means were fitted with equations in the GraphPad Prism 5 software. A fluorescence-linked immunoabsorbent assay (FLISA) that was used to confirm the specificity of Cy5-P0_101–125 for P0 is described in Additional file 1: Fluorescence-linked immunoabsorbent assay.

Solubility in H2O = format: physicochemical; details: water; saturated solution in H2O at r.t., centrifugation, absorption of supernatant (UV/Vis)
Stability in serum = details: 24 h at 37 °C, % stable
[2] = ref Spa et al (2); cited from earlier work
[3] = Stability at different temperatures; details: after 4 hr at -20 °C, PBS, 10–0.6 µM, relative to t=0, n = 6
Method: A stock solution of either non-functionalized Cy5 or Cy5-P0101-125 (10 µM in PBS) was diluted
1:1 in PBS to create a concentration range between 10 –0.6 µM. The absorbance and
fluorescence intensities of each sample were measured (t=0 h) prior to storing the samples
at different temperatures (i.e., -20, 0, 20 and 37 °C). After t = 4 h, the absorbance and
fluorescence intensities of each sample was measured. The relative intensities (compared to
t=0) of each concentration were averaged to obtain n = 6 per temperature setting.

[4] = design: method as in 2 sources, one per row (each row's own in cited_ref): ref Spa et al (2) ||| ref (2) (a number printed in a supplementary file, which may have a reference list of its own: not looked up in the article's list); details: cited from earlier work
Myelin protein zero (P0) = molecular target: T2, Myelin protein zero (P0) (Rattus norvegicus, UniProt P06907); assay: flow cytometry saturation binding (RT4 D6P2T cells)
T2 chain: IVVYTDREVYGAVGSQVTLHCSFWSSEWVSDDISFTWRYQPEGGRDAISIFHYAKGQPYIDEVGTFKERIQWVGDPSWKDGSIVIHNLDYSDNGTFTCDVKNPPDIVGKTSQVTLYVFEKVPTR

CC[C@H](C)[C@H](N)C(=O)N[C@H](C(=O)N[C@H](C(=O)N[C@@H](Cc1ccc(O)cc1)C(=O)N[C@H](C(=O)N[C@@H](CC(=O)O)C(=O)N[C@@H](CCCNC(=N)N)C(=O)N[C@@H](CCC(=O)O)C(=O)N[C@H](C(=O)N[C@@H](Cc1c[nH]cn1)C(=O)NCC(=O)N[C@@H](C)C(=O)N[C@H](C(=O)NCC(=O)N[C@@H](CO)C(=O)N[C@@H](CCCNC(=N)N)C(=O)N[C@H](C(=O)N[C@H](C(=O)N[C@@H](CC(C)C)C(=O)N[C@@H](Cc1c[nH]cn1)C(=O)N[C@@H](CSC1CC(=O)N(CCNC(=O)CCCCC[N+]2=C(/C=C/C=C/C=C3/N(CCCCS(=O)(=O)O)c4ccc(S(=O)(=O)O)cc4C3(C)C)C(C)(C)c3cc(S(=O)(=O)[O-])ccc32)C1=O)C(=O)N[C@@H](CO)C(=O)N[C@@H](Cc1ccccc1)C(=O)N[C@@H](Cc1c[nH]c2ccccc12)C(=O)N[C@@H](CO)C(N)=O)[C@@H](C)O)C(C)C)C(C)C)C(C)C)[C@@H](C)O)C(C)C)C(C)C (some centres unmarked) [Cy5-P0_1–25] (H-IVVYTDREVHGAVGSRVTLHC(X1)SFWS-NH2)
Kd [1]: > 1000 nM | solubility thermodynamic (Solubility in H2O): 12 µM (≈ 44.5 µg/mL)

CC[C@H](C)[C@H](NC(=O)[C@H](C)NC(=O)[C@H](CC(=O)O)NC(=O)[C@H](CCCNC(=N)N)NC(=O)CNC(=O)CNC(=O)[C@H](CCC(=O)O)NC(=O)[C@@H]1CCCN1C(C)=O)C(=O)N[C@@H](CO)C(=O)N[C@H](C(=O)N[C@@H](Cc1ccccc1)C(=O)N[C@@H](Cc1c[nH]cn1)C(=O)N[C@@H](Cc1ccc(O)cc1)C(=O)N[C@@H](C)C(=O)N[C@@H](CCCCN)C(=O)NCC(=O)N[C@@H](CCC(N)=O)C(=O)N1CCC[C@H]1C(=O)N[C@@H](Cc1ccc(O)cc1)C(=O)N[C@H](C(=O)N[C@@H](CC(=O)O)C(=O)N[C@@H](CCC(=O)O)C(=O)N[C@H](C(=O)NCC(=O)N[C@H](C(=O)N[C@@H](CSC1CC(=O)N(CCNC(=O)CCCCC[N+]2=C(/C=C/C=C/C=C3/N(CCCCS(=O)(=O)O)c4ccc(S(=O)(=O)O)cc4C3(C)C)C(C)(C)c3cc(S(=O)(=O)[O-])ccc32)C1=O)C(N)=O)[C@@H](C)O)C(C)C)[C@@H](C)CC)[C@@H](C)CC (some centres unmarked) [Cy5-P0_41–65] (Ac-PEGGRDAISIFHYAKGQPYIDEVGTC(X1)-NH2)
Kd [1]: > 1000 nM | solubility thermodynamic (Solubility in H2O): 45 µM (≈ 169 µg/mL)

CC[C@H](C)[C@H](NC(=O)[C@H](CCCNC(=N)N)NC(=O)[C@H](CCC(=O)O)NC(=O)[C@H](CCCCN)NC(=O)[C@H](Cc1ccccc1)NC(=O)[C@@H](NC(=O)CNC(=O)[C@@H](NC(=O)[C@H](CCC(=O)O)NC(=O)[C@H](CC(=O)O)NC(C)=O)C(C)C)[C@@H](C)O)C(=O)N[C@@H](CCC(N)=O)C(=O)N[C@@H](Cc1c[nH]c2ccccc12)C(=O)N[C@H](C(=O)NCC(=O)N[C@@H](CC(=O)O)C(=O)N1CCC[C@H]1C(=O)N[C@@H](CCCNC(=N)N)C(=O)N[C@@H](Cc1c[nH]c2ccccc12)C(=O)N[C@@H](CCCCN)C(=O)N[C@@H](CC(=O)O)C(=O)NCC(=O)N[C@@H](CO)C(=O)N[C@H](C(=O)N[C@H](C(=O)N[C@H](C(=O)N[C@@H](CSC1CC(=O)N(CCNC(=O)CCCCC[N+]2=C(/C=C/C=C/C=C3/N(CCCCS(=O)(=O)O)c4ccc(S(=O)(=O)O)cc4C3(C)C)C(C)(C)c3cc(S(=O)(=O)[O-])ccc32)C1=O)C(N)=O)[C@@H](C)CC)C(C)C)[C@@H](C)CC)C(C)C (some centres unmarked) [Cy5-P0_61–85] (Ac-DEVGTFKERIQWVGDPRWKDGSIVIC(X1)-NH2)
Kd [1]: > 1000 nM | solubility thermodynamic (Solubility in H2O): 6 µM (≈ 23.8 µg/mL)

CC[C@H](C)[C@H](NC(=O)[C@H](CO)NC(=O)CNC(C)=O)C(=O)N[C@H](C(=O)N[C@H](C(=O)N[C@@H](Cc1c[nH]cn1)C(=O)N[C@@H](CC(N)=O)C(=O)N[C@@H](CC(C)C)C(=O)N[C@@H](CC(=O)O)C(=O)N[C@@H](Cc1ccc(O)cc1)C(=O)N[C@@H](CO)C(=O)N[C@@H](CC(=O)O)C(=O)N[C@@H](CC(N)=O)C(=O)NCC(=O)N[C@H](C(=O)N[C@@H](Cc1ccccc1)C(=O)N[C@H](C(=O)N[C@@H](CSC1CC(=O)N(CCNC(=O)CCCCC[N+]2=C(/C=C/C=C/C=C3/N(CCCCS(=O)(=O)O)c4ccc(S(=O)(=O)O)cc4C3(C)C)C(C)(C)c3cc(S(=O)(=O)[O-])ccc32)C1=O)C(=O)N[C@@H](CC(=O)O)C(=O)N[C@H](C(=O)N[C@@H](CCCCN)C(=O)N[C@@H](CC(N)=O)C(=O)N1CCC[C@H]1C(=O)N1CCC[C@H]1C(=O)N[C@@H](CC(=O)O)C(N)=O)C(C)C)[C@@H](C)O)[C@@H](C)O)[C@@H](C)CC)C(C)C (some centres unmarked) [Cy5-P0_81–105] (Ac-GSIVIHNLDYSDNGTFTC(X1)DVKNPPD-NH2)
Kd [1]: > 1000 nM | solubility thermodynamic (Solubility in H2O): 68 µM (≈ 248 µg/mL)

CC[C@H](C)[C@H](NC(=O)[C@H](CC(=O)O)NC(=O)[C@@H]1CCCN1C(=O)[C@@H]1CCCN1C(=O)[C@H](CC(N)=O)NC(=O)[C@H](CCCCN)NC(=O)[C@@H](NC(=O)[C@H](CC(=O)O)NC(=O)[C@H](C)NC(=O)[C@@H](NC(=O)[C@H](Cc1ccccc1)NC(=O)[C@@H](NC(C)=O)[C@@H](C)O)[C@@H](C)O)C(C)C)C(=O)N[C@H](C(=O)NCC(=O)N[C@@H](CCCCN)C(=O)N[C@H](C(=O)N[C@@H](CO)C(=O)N[C@@H](CCC(N)=O)C(=O)N[C@H](C(=O)N[C@H](C(=O)N[C@@H](CC(C)C)C(=O)N[C@@H](Cc1ccc(O)cc1)C(=O)N[C@H](C(=O)N[C@@H](Cc1ccccc1)C(=O)N[C@@H](CCC(=O)O)C(=O)N[C@@H](CCCCN)C(=O)N[C@@H](CSC1CC(=O)N(CCNC(=O)CCCCC[N+]2=C(/C=C/C=C/C=C3/N(CCCCS(=O)(=O)O)c4ccc(S(=O)(=O)O)cc4C3(C)C)C(C)(C)c3cc(S(=O)(=O)[O-])ccc32)C1=O)C(N)=O)C(C)C)[C@@H](C)O)C(C)C)[C@@H](C)O)C(C)C (some centres unmarked) [Cy5-P0_95–120] (Ac-TFTADVKNPPDIVGKTSQVTLYVFEKC(X1)-NH2)
Kd [1]: > 1000 nM | solubility thermodynamic (Solubility in H2O): 150 µM (≈ 589 µg/mL)

CCN1/C(=C/C=C/C=C/C2=[N+](CCCCCC(=O)O)c3ccc(S(=O)(=O)O)cc3C2(C)C)C(C)(C)c2cc(S(=O)(=O)[O-])ccc21 [Cy5]
Stability in serum (Stability in serum): 98% | Serum protein binding [2]: 6% ± 5% and 6% | remaining absorbance [3]: 66 ± 8% | remaining fluorescence [3]: 80 ± 10% | degradation when incubated with glutathione ([4]; ref (2)): 1% | Stability towards glutathione ([4]; ref Spa et al (2)): 99%

Ac-KNPPDIVGKTSQVTLYVFEKVPTRYC(Cy5)-NH2 [Cy5-P0(101-125)]
Kd (Myelin protein zero (P0)): 105 nM
